Here are results for one compound from patent US20130303500A1, “COMPOUNDS AND METHODS FOR TREATING NEOPLASIA” (Medexis S.A., priority 2010, published 2013).

Test [1] concerns H460 (Lung) cells. Description: Sulforhodamine B (SRB) assay, H460. The class given is cell-based, human. The procedure: (§1) Sulforhodamine B (SRB) assays were performed according to standard National Cancer Institute Guidelines. Briefly, human tumor cells from different cancer panels were seeded into 96 well plates in […] (plating densities ranging from 5-40,000 cells/well depending on the doubling time of individual cell lines) in serum-containing media for twenty-four hours prior to the addition of the compounds to be assayed. After 24 hours, one plate of each cell line was fixed in situ with trichloroacetic acid (TCA). The fixed slides were used to determine the cell population for each cell line at the time of drug addition (Tz). Each compound to be tested was solubilized in dimethyl sulfoxide (DMSO) and the desired concentration was then added to the medium and diluted serially 1:10 to provide a total of five or ten drug concentrations plus control (in a final volume of 200 μL). The starting dose before any dilution was 100 uM for all compounds.
(§2) Following drug addition, each culture was incubated for forty-eight hours. The assay was terminated with the addition of cold TCA. The supernatant was discarded, and the plates were washed with tap water and air dried. SRB solution was then added to each well. After staining, the bound stain was solubilized and the absorbance was read on an automated plate reader at a wavelength of 515 nm.
(§3) Using the absorbance measurements [time zero, (Tz), control growth, (C), and test growth in the presence of drug at the ten concentration levels (Ti)], the percentage growth was calculated at each of the drug concentrations levels. Percentage growth inhibition was calculated as:
(§4) [(Ti−Tz)/(C−Tz)]×100 for concentrations for which Ti>/=Tz
(§5) [(Ti−Tz)/Tz]×100 for concentrations for which Ti<Tz.
(§6) Three dose response parameters were calculated for each experimental agent. Growth inhibition of 50% (GI50) was calculated from [(Ti−Tz)/(C−Tz)]×100=50, which was the drug concentration resulting in a 50% reduction in the net protein increase (as measured by SRB staining) in control cells during the drug. The drug concentration resulting in total growth inhibition (TGI) was calculated from Ti=Tz. The LC50 (concentration of drug resulting in a 50% reduction in the measured protein at the end of the drug treatment as compared to that at the beginning) indicating a net loss of cells following treatment was calculated from [(Ti−Tz)/Tz]×100=−50.
(§7) Values were calculated for each of these three parameters when the level of activity was reached; however, if the effect was not reached or was exceeded, the value for that parameter was expressed as greater or less than the maximum or minimum concentration tested.
For orientation: The SRB assay estimates cell density from bound dye.

The subject of test [2] is 7 different cell lines (lung, ovarian, prostate, CNS, breast, colon). Description: SRB assays across 7 cell lines. Format: cell-based, human. The procedure:
as §1, §2, §3, §4, §5, §6, §7
SRB provides a colorimetric measure of a compound's anti-cancer activity. SRB assays were performed with compounds of the invention in 7 different cell lines, which represent six different tumor panels (lung, ovarian, prostate, CNS, breast, colon).

Test [3] relates to HCT116 (Colon) cells. Description: Sulforhodamine B (SRB) assay, HCT116. Format: cell-based, human. How it is done:
as §1, §2, §3, §4, §5, §6, §7

Test [4] concerns A549 (Lung) cells. As to the kind of experiment: Sulforhodamine B (SRB) assay, A549. Format: cell-based. As to conditions: Homo sapiens. How it is done: as §1, §2, §3, §4, §5, §6, §7
The subject of test [5] is CAKI (Renal) cells. As to the kind of experiment: MTT cell proliferation/viability assay, CAKI. The class given is cell-based. As to conditions: 72 h. How it is done: Cell proliferation/viability was assessed by the MTT [3-(4,5-dimethylthiazol-2-yl)-2,5-diphenyltetrazolium bromide] assay, which is commercially available (Sigma, St. Louis, Mo.). Cells were cultured in 96-well plates for twenty-four hours (7-10.000 cells/well) and incubated with various concentrations of the different compounds—as indicated in the Figures—in serum-containing medium (or left untreated) for seventy-two hours. At the end of incubation, the medium was aspirated and MTT dissolved in RPMI 1640 w/o phenol red was added to each well to a final concentration of 0.25 mg/ml. After four hours incubation in the dark (37° C., 5% CO2) the supernatant was discarded. The converted dye (blue formazan crystals) was solubilized by adding 200 μl dimethylsulfoxide to each well. Absorbance was measured at 550 nm with reference at 655 nm using a spectrophotometer with the respective filters. All assays were performed in triplicate.
The effect of the different compounds on the proliferation and viability of two cancer cell lines (DU145/prostate and CAKI/renal) was tested through quantitative (4,5-dimethylthiazol-2-yl)-2,5-diphenyltetrazolium bromide (MTT) assays.

Test [6] concerns MCF7 (Breast) cells. As to the kind of experiment: Sulforhodamine B (SRB) assay, MCF7. Format: cell-based, human. The procedure: as §1, §2, §3, §4, §5, §6, §7

The term TGI denotes the concentration at which net growth stops. Higher therefore signals less potent growth arrest. The term GI50 denotes the concentration at which growth is held to half of that of the control. Low readings indicate more potent growth inhibition, high ones less potent growth inhibition. Usually IC50 stands for the point on the concentration scale where inhibition reaches its midpoint. A high value points to lower potency. Consider `C[C@]12CCC(=NOC3CCNC3)CC1CCC1C2CC[C@]2(C)C(=O)C(F)CC12` (stereo partly drawn) [Compound 2, (5S,10S,13S,16R)-16a-fluoro-10,13-dimethyl-3-((S)-pyrrolidin-3-yloxyimino)-tetradecahydro-2H-cyclopenta[a]phenanthren-17(14H)-one], for which the TGI in test [1] (H460 Lung, SRB, 48 h) was determined as 7 nM; in test [3] (HCT116 Colon, SRB, 48 h), 0.156 µM; in test [6] (MCF7 Breast, SRB, 48 h), 0.478 µM. The CC50 is 54 nM in test [1] (Homo sapiens, NCI-H460, 48 h, read-out: LC50); under 1000 nM in test [2] (Homo sapiens, read-out: LC50 values); 998 nM in test [3] (Homo sapiens, HCT-116, 48 h, read-out: LC50); 599 nM in test [4] (A549, 48 h, read-out: LC50); 9.78 µM in test [6] (Homo sapiens, MCF7, 48 h, read-out: LC50). Further, the GI50 in test [1] (Homo sapiens, NCI-H460, H460 Lung, SRB, 48 h) is under 1 nM; in test [2] (Homo sapiens, SRB, average over cell lines) it was under 1000 nM; in test [3] (Homo sapiens, HCT-116, HCT116 Colon, SRB, 48 h), 8 nM; in test [4] (A549 Lung, SRB, 48 h), 9 nM; in test [6] (Homo sapiens, MCF7 Breast, SRB, 48 h) it was 21 nM. The “viability and/or cell proliferation of cell lines” value in test [2] (cell lines representative of lung, breast, CNS, prostate, ovarian, colon and renal neoplasias) is “reduced the viability and/or cell proliferation”. This compound also returned an IC (TGI) in test [4] (A549 Lung, SRB, 48 h) of 0.073 µM. In test [5], this compound yielded an IC50 of 8.75 µM.
